Experimental data published in patent publication US20150209335A1, “METHODS AND SMALL MOLECULE THERAPEUTICS COMPRISING FUSED ELPS” (UNIVERSITY OF SOUTHERN CALIFORNIA, priority 2012, published 2015).

B1: F24S24: ELP diblock copolymer (Val-Pro-Gly-Phe-Gly)24(Val-Pro-Gly-Ser-Gly)24 (SEQ ID NO: 13), forms nanoparticles (protein)
chain: VPGFGVPGFGVPGFGVPGFGVPGFGVPGFGVPGFGVPGFGVPGFGVPGFGVPGFGVPGFGVPGFGVPGFGVPGFGVPGFGVPGFGVPGFGVPGFGVPGFGVPGFGVPGFGVPGFGVPGFGVPGSGVPGSGVPGSGVPGSGVPGSGVPGSGVPGSGVPGSGVPGSGVPGSGVPGSGVPGSGVPGSGVPGSGVPGSGVPGSGVPGSGVPGSGVPGSGVPGSGVPGSGVPGSGVPGSGVPGSG
B2: I48S48: ELP diblock copolymer (Val-Pro-Gly-Ile-Gly)48(Val-Pro-Gly-Ser-Gly)48 (SEQ ID NO: 12), forms nanoparticles (protein)
chain: VPGIGVPGIGVPGIGVPGIGVPGIGVPGIGVPGIGVPGIGVPGIGVPGIGVPGIGVPGIGVPGIGVPGIGVPGIGVPGIGVPGIGVPGIGVPGIGVPGIGVPGIGVPGIGVPGIGVPGIGVPGIGVPGIGVPGIGVPGIGVPGIGVPGIGVPGIGVPGIGVPGIGVPGIGVPGIGVPGIGVPGIGVPGIGVPGIGVPGIGVPGIGVPGIGVPGIGVPGIGVPGIGVPGIGVPGIGVPGIGVPGSGVPGSGVPGSGVPGSGVPGSGVPGSGVPGSGVPGSGVPGSGVPGSGVPGSGVPGSGVPGSGVPGSGVPGSGVPGSGVPGSGVPGSGVPGSGVPGSGVPGSGVPGSGVPGSGVPGSGVPGSGVPGSGVPGSGVPGSGVPGSGVPGSGVPGSGVPGSGVPGSGVPGSGVPGSGVPGSGVPGSGVPGSGVPGSGVPGSGVPGSGVPGSGVPGSGVPGSGVPGSGVPGSGVPGSGVPGSG

How the values were obtained:
[1] = test system: MDA-MB-468 rapamycin sensitive breast cancer cell line; assay: MTS cell viability assay, MDA-MB-468; assay type: cell-based; settings: MDA-MB-468 cell assay
Experimental: Each mouse was injected with 3×10^6 MDA-MB-468 cells s.c. in mammary fat pads. […] 3 times a week. […] Therefore, the dose was reduced to only once a week.

[2] = test system: lymphocytic infiltration of the lacrimal gland; assay: lymphocytic infiltration of the lacrimal gland in male NOD mice (autoimmune dacryoadenitis); assay type: in vivo, mouse; settings: 12 week old male NOD mice, tail vein, one week of treatment
From the text: The bottom panel is image analysis that was used to quantify % of tissue section containing lymphocyte foci. *p=0.003, **P=5×10·5, ***P=0.01, ****P=0.0009.

[3] = test system: interferon gamma (IFN gamma); assay: interferon gamma expression in NOD mouse lacrimal gland, real time RT-PCR; assay type: in vivo; settings: NOD mice, 7-day treatment period
From the text: Quantitation was achieved using real time RT-PCR. Expression of IFN-gamma was quantified after a 7-day treatment period with PBS, Free Rapa, and FSI Rapa.

[4] = in vivo; cited from earlier work
[5] = toxicity and body weight in the MDA-MB-468 xenograft mouse study; settings: after first 2 doses, dosed 3 times a week
From the text: 3 times a week. […] Therefore, the dose was reduced to only once a week.

[6] = Rapa encapsulation and release from ELP nanoparticles, dialysis under sink conditions, RP-HPLC; assay type: physicochemical; settings: preliminary experiments
Experimental: Dialysis under sink conditions was used track the loss of Rapa from the nanoparticles. Mean±SD (n=3).
A two phase method was developed to encapsulate Rapa into the ELP nanoparticles. An aqueous phase PBS containing S48I48 or FKBP-S48I48 was mixed with an organic phase hexane/EtOH containing Rapa in a small glass vial. The vial was kept stirred and heated up to the CMT of S48I48 or FKBP-S48I48. A nitrogen flow was applied to facilitate the evaporation of the hexane/EtOH phase. A 13.2K 10 min centrifugation was performed to remove the insoluble Rapa after the organic phase evaporated out. 100 μL of the sample was filtered and injected into a C-18 reverse phase HPLC column to analyze the amount of the Rapa that was initially encapsulated. Rapa releasing experiment was performed under a sink condition of H2O dialysis. Samples were collected in the dialysis cassette at time points of 0 h, 1 h, 2 h, 4 h, 6 h, 9 h, 19.5 h, 27 h, 31 h and 48 h. RP-HPLC was used to determine the amount of Rapa that was retained inside the ELP nanoparticle core.

[7] = dynamic light scattering (DLS) size of ELP nanoparticles; assay type: physicochemical; settings: concentration of 25 uM
From the text: ELP diblock copolymers with hydrophobic and hydrophilic guest residues at opposite ends of the polymer (e.g. (Val-Pro-Gly-Ile-Gly) 48(Val-Pro-Gly-Ser-Gly)48 (SEQ ID NO: 12) called I48S48) can form nanoparticles. A class of ELP block copolymers with hydrophobic block:hydrophilic block=1:1 have been confirmed to form different sizes of stable nanoparticles. For instances, (Val-Pro-Gly-Ile-Gly)48(Val-Pro-Gly-Ser-Gly)48 (SEQ ID NO: 12) short name: 148S48; (Val-Pro-Gly- Phe-Gly)24(Val-Pro-Gly-Ser-Gly)24 (SEQ ID NO: 13)) short name F24S24. Dynamic light scattering (DLS) can be applied to measure the size of ELP nanoparticles. At concentration of 25 uM, ELP block copolymer 148S48 forms 24 nm in radius nanoparticles; however, F24S24 forms nanoparticles with 15 nm hydrodynamic radius. In order to actually observe the morphology of ELP nanoparticles, transmission electron microscopy (TEM) and cryo-transmission electron microscopy (Cryo-TEM) can be applied. In TEM, 1% of Uranyl acetate solution is used to negatively stain ELP nanoparticles. Therefore, ELP nanoparticles are expected to be observed as hollow spheres. Different from TEM in which ELP samples are loaded on a grid and dry at room temperature. Cryo-TEM studies ELP samples at cryogenic temperatures, generally liquid nitrogen temperatures. […]

Molecule | rapamycin dose (concentration) that could be reached [1] | lymphocytic infiltration (lymphocyte foci) of lacrimal gland [2] | IFN gamma expression in lacrimal gland [3] | bioavailability of the plain drug [4] | body weight lost [5] | rapamycin encapsulation into plain ELP nanoparticles [6] | nanoparticle hydrodynamic radius [7] [nm]
CO[C@H]1C[C@@H]2CC[C@@H](C)[C@@](O)(O2)C(=O)C(=O)N2CCCC[C@H]2C(=O)O[C@H]([C@H](C)C[C@@H]2CC[C@@H](O)[C@H](OC)C2)CC(=O)[C@H](C)/C=C(\C)[C@@H](O)[C@@H](OC)C(=O)[C@H](C)C[C@H](C)/C=C/C=C/C=C/1C [rapamycin, (3S,6R,7E,9R,10R,12R,14S,15E,17E,19E,21S,23S,26R,27R,34aS)-9,10,12,13,14,21,22,23,24,25,26,27,32,33,34,34a-hexadecahydro-9,27-dihydroxy-3-[(1R)-2-[(1S,3R,4R)-4-hydroxy-3-methoxycyclohexyl]-1-methylethyl]-10,21-dimethoxy-6,8,12,14,20,26-hexamethyl-23,27-epoxy-3H-pyrido[2,1-c][1,4]-oxaazacyclohentriacontine-1,5,11,28,29 (4H,6H,31H)-pentone] | could not reach such a high rapamycin concentration | less lymphocyte invasion | sizeable reduction | less than 20% | about 10% | – | –
B1 | – | – | – | – | – | efficiently encapsulated | 15
B2 | – | – | – | – | – | efficiently encapsulated | 24
